In patent US9650339B2, “Inhibitors of histone demethylases” (Gilead Sciences, Inc., priority 2013, dated 2017):

Experiments:
KDM6A (UTX) = KDM6A (UTX) (Homo sapiens, UniProt O15550); assay: Histone lysine demethylase AlphaLISA assay, KDM6A; format: biochemical; details: read-out: KDM6A HDME Inhibition IC50
Protocol: (§1) Assays are performed analogously to the protocol described by PerkinElmer (Roy et al. PerkinElmer Technical Note: AlphaLISA #12, April 2011)
(§2) Enzymes are dissolved in enzyme buffer and incubated for 10 min before being added to 3% DMSO solutions of compounds in enzyme buffer. Incubated for another 10 minutes, before substrate solution is added and the reaction mixture is incubated at room temperature. 10 μL acceptor beads, suspended in Epigenetic Buffer (Perkin Elmer AL008) from stock, are added and the suspension is incubated in the dark at room temperature, before a suspension of streptavidin donor beads (Perkin Elmer 6760002) in Epigenetic Buffer is added. After incubation at room temperature in the dark the plates are read. […]
BK27M3: Biotin-ATKAAR(Kme3)SAPATGGVKKPHRY-NH2? (Caslo, Denmark) […]
(§3) Substrate Solution: Substrate, 25 μM L-Asc, and 10 μM α-KG in Buffer A.

KDM2B (FBXL10) = target: T1, KDM2B (FBXL10) (Homo sapiens, UniProt Q8NHM5); assay: Histone lysine demethylase AlphaLISA assay, KDM2B; format: biochemical; details: read-out: KDM2B HDME Inhibition IC50
T1 sequence (Q8NHM5 1-650): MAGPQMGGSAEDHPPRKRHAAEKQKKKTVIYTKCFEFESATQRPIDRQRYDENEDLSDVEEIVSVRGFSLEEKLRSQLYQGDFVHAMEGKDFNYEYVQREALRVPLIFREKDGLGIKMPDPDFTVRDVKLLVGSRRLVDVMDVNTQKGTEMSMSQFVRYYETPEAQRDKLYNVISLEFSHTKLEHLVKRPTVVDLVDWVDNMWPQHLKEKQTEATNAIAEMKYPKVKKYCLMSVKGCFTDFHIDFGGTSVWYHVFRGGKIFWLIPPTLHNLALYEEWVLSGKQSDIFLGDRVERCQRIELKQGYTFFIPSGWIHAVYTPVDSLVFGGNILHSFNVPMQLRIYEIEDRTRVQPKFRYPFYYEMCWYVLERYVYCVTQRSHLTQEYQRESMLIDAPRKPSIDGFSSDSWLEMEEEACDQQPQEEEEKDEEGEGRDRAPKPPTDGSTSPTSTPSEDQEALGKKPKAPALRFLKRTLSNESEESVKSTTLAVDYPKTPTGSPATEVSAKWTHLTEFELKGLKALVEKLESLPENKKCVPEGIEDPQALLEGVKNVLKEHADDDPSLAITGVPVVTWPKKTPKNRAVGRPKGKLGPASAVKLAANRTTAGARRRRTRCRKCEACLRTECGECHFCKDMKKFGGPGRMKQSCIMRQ
Protocol: as §1, §2
BH3K36M2: RKAAPATGGVK(Me2)KPHRYRPGTVK-(BIOTIN)? (Anaspec)
as §3

KDM5B (PLU-1) = target: T2, KDM5B (PLU-1) (Homo sapiens, UniProt Q9UGL1); assay: Histone lysine demethylase AlphaLISA assay, KDM5B; format: biochemical; details: read-out: KDM5B HDME Inhibition IC50
T2 sequence (Q9UGL1 1-809): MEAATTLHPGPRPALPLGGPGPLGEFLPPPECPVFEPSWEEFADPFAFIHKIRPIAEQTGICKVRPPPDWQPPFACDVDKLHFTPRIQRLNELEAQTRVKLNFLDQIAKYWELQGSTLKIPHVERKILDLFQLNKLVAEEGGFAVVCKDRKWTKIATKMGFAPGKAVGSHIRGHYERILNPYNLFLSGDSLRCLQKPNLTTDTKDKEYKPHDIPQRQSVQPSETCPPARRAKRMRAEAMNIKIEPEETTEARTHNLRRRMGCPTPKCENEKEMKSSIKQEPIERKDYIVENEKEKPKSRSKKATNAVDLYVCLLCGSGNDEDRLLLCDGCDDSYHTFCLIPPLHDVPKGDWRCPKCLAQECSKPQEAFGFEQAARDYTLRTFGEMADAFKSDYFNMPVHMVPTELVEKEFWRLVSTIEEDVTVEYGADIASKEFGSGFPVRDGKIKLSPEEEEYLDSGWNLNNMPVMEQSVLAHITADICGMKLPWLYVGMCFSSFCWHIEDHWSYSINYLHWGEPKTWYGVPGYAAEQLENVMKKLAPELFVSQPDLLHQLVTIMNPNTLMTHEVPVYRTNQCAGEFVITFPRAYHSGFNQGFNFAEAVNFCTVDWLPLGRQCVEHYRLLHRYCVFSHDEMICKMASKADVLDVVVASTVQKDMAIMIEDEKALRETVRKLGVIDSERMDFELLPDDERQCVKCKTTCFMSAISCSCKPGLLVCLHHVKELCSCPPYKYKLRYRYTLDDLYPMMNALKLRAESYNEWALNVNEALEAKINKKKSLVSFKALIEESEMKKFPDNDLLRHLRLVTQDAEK
Protocol: as §1, §2
H3K4M3B: H-ART(Kme3)QTARKSTGGKAPRKQLA-NH-Biotin (Caslo, Denmark) […]
as §3

KDM4C (JMJD2C) = target: T3, KDM4C (JMJD2C) (Homo sapiens, UniProt Q9H3R0); assay: Histone lysine demethylase AlphaLISA assay, KDM4C; format: biochemical; details: read-out: KDM4C HDME Inhibition IC50
T3 sequence (Q9H3R0 1-349): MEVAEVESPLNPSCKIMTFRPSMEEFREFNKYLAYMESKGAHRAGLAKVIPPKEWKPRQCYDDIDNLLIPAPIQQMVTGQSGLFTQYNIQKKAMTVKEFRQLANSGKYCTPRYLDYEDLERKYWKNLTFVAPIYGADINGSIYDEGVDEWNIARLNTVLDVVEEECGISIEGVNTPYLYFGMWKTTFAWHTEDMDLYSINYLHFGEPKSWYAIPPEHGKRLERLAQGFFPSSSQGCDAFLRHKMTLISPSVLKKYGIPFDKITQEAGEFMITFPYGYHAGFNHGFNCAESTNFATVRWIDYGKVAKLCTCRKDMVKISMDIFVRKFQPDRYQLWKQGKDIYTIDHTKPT
Protocol: as §1
Enzymes are dissolved in enzyme buffer and incubated for 10 min before being added to 3% DMSO solutions of compounds in enzyme buffer. Incubated for another 10 minutes, before substrate solution is added and the reaction mixture is incubated at room temperature. 10 μL acceptor beads, suspended in Epigenetic Buffer (Perkin Elmer AL008) from stock, are added and the suspension is incubated in the dark at room temperature, before a suspension of streptavidin donor beads (Perkin Elmer 6760002) in Epigenetic Buffer is added. After incubation at room temperature in the dark the plates are read.
BK9M3: Biotin-ARTKQTAR(KMe3)STGGKAPRKQ-NH2 (Caslo, Denmark) […]
as §3

MCF7 cells = assay: Cell proliferation assay MCF7; format: cell-based; details: MCF7 human breast cancer cells; 120 hours; ATPlite 1 Step
Protocol: MCF7 cells were seeded in multi well plates at a density optimized to give approximately 90% confluent cells at the time of harvest. Cells were incubated for 24 hours before addition of compound. Compounds were diluted in complete medium and added to the plates in duplicates. The final concentration of DMSO was maximum 0.5%. Complete medium used was DMEM with GlutaMAX containing 10% FBS and pen/strep.
120 hours after addition of compounds, the plates were harvested and analyzed by ATPlite 1 Step (Perkin Elmer, cat no 6016739) according to the manufactures recommendation.

H3K4me3 mark = assay: Histone lysine demethylase immunofluorescence assay, non-transfected U2OS cells; format: cell-based; details: Homo sapiens, staining of the H3K4me3 mark, 20 hours incubation with compound
Protocol: U2OS cells were harvested and seeded into multi well plates into media containing compound. The media used was DMEM containing 5% FBS and pen/strep. 20 hours after incubation of cells with compounds, the cells were washed once in PBS, harvested by fixation with formaldehyde 4% aqueous solution, and washed in PBS. Subsequently, the cells were permeabilized in PBS with 0.2% Triton X-100. Blocking was performed in PBS with 0.2% Triton X-100 and 5% FBS. The cells were incubated with αH3K4me3 primary antibody (Cell Signaling, #9751S) in blocking solution over night at 4° C. After incubation with primary antibody, the cells were washed with PBS, incubated with secondary antibody (Alexa fluor 594 goat anti rabbit IgG, Invitrogen, A11012) and Hoechst, (Sigma, 33342) in blocking solution, and washed again with PBS. Finally, PBS was added and high throughput imaging and analysis were performed by an IN Cell Analyzer 1000 (GE Healthcare). The IC50 values were based on an average measure of the staining of the H3K4me3 mark in cells.

KDM6A (UTX), sequence (O15550 919-1401): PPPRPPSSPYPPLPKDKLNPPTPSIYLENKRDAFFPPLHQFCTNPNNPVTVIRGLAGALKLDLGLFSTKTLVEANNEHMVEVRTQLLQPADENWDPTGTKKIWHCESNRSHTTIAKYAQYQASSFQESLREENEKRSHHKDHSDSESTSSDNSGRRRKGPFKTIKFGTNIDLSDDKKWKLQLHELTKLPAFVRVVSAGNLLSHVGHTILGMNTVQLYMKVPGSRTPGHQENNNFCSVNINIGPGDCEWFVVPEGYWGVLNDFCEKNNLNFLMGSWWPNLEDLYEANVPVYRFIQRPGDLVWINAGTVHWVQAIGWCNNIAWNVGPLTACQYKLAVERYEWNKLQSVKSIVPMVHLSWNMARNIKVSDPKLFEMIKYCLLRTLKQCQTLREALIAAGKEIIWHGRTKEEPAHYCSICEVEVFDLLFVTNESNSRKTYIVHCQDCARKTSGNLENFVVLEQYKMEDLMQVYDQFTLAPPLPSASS

Structure (SMILES): CCN(CC)CCCCNCc1cc(/C=N/CC(O)Cc2ccccc2)ccn1 (centres unmarked) [Compound 84, 1-[{[2-({[4-(diethylamino)-butyl]amino}methyl)pyridin-4-yl]methylidene}amino]-3-phenylpropan-2-ol]
- IC50 (KDM6A (UTX)): > 2500 nM
- IC50 (KDM2B (FBXL10)): > 2500 nM
- IC50 (KDM5B (PLU-1)): 250 to 2500 nM
- IC50 (KDM4C (JMJD2C)): > 2500 nM
- EC50 (MCF7 cells): < 250 nM

Structure (SMILES): CCN(CC)CCCCNCc1cc(/C=N/CC2(CO)CC2)ccn1 [Compound 77, (1-{[{[2-({[4-(diethylamino)-butyl]amino}-methyl)pyridin-4-yl]-methylidene}amino]-methyl}cyclopropyl)-methanol]
- IC50 (KDM2B (FBXL10)): > 2500 nM
- IC50 (KDM5B (PLU-1)): 250 to 2500 nM
- IC50 (KDM4C (JMJD2C)): > 2500 nM
- EC50 (MCF7 cells): < 250 nM
- IC50 (H3K4me3 mark): < 250 nM

Structure (SMILES): CCN(CCN(C)C)C(=O)CNCc1cc(/C=N/CC(CO)Cc2ccccc2)ccn1 (centres unmarked) [Compound 89, 2-[({4-[[(2-benzyl-3-hydroxypropyl)imino]methyl]pyridin-2-yl}methyl)amino]-N-[2-(dimethylamino)ethyl]-N-ethylacetamide]
- IC50 (KDM6A (UTX)): > 2500 nM
- IC50 (KDM2B (FBXL10)): > 2500 nM
- IC50 (KDM5B (PLU-1)): < 250 nM
- IC50 (KDM4C (JMJD2C)): 250 to 2500 nM
- EC50 (MCF7 cells): < 250 nM

Structure (SMILES): CCN(CC)CCCCNCc1cc(C2NCC3(CCCC3)CO2)ccn1 (centres unmarked) [Compound 72, [4-(diethylamino)-butyl][(4-{7-oxa-9-azaspiro[4.5]decan-8-yl}pyridin-2-yl)methyl]amine]
- IC50 (KDM6A (UTX)): > 2500 nM
- IC50 (KDM2B (FBXL10)): > 2500 nM
- IC50 (KDM5B (PLU-1)): 250 to 2500 nM
- IC50 (KDM4C (JMJD2C)): > 2500 nM
- EC50 (MCF7 cells): < 250 nM

Structure (SMILES): CCN(CCN(C)C)C(=O)CNCc1cc(CNC(=O)C(F)(F)C(F)(F)C(F)(F)F)ccn1 [Compound 31, N-[(2-{[({[2-(dimethylamino)ethyl] (ethyl)carbamoyl}-methyl)amino]methyl}-pyridin-4-yl)-methyl]-2,2,3,3,4,4,4-heptafluorobutanamide]
- IC50 (KDM6A (UTX)): > 2500 nM
- IC50 (KDM2B (FBXL10)): > 2500 nM
- IC50 (KDM5B (PLU-1)): 250 to 2500 nM
- IC50 (KDM4C (JMJD2C)): > 2500 nM
- EC50 (MCF7 cells): 250 to 2500 nM

Structure (SMILES): CCN(CC)CCCCNCc1cc(C=NCC(C)O)ccn1 (centres unmarked) [Compound 74, 1-[{[2-({[4-(diethylamino)-butyl]amino}-methyl)pyridin-4-yl]methylidene}-amino]propan-2-ol]
- IC50 (KDM5B (PLU-1)): < 250 nM
- IC50 (KDM4C (JMJD2C)): > 2500 nM
- EC50 (MCF7 cells): < 250 nM
- IC50 (H3K4me3 mark): < 250 nM

Structure (SMILES): CCN(CC)CCN(CC)C(=O)CNCc1cc(C=O)ccn1 [Compound 116, N-[2-(diethylamino)-ethyl]-N-ethyl-2-{[(4-formylpyridin-2-yl)methyl]amino}-acetamide]
- IC50 (KDM6A (UTX)): > 2500 nM
- IC50 (KDM5B (PLU-1)): < 250 nM
- IC50 (KDM4C (JMJD2C)): < 250 nM
- EC50 (MCF7 cells): < 250 nM
- IC50 (H3K4me3 mark): < 250 nM

Structure (SMILES): CCN(CC)CCCCNCc1cc(C=NNc2ccc(C#N)cc2)ccn1 [Compound 70, 4-[2-{[2-({[4-(diethylamino)-butyl]amino}methyl)pyridin-4-yl]methylidene}-hydrazin-1-yl]benzonitrile]
- IC50 (KDM6A (UTX)): > 2500 nM
- IC50 (KDM5B (PLU-1)): 250 to 2500 nM
- IC50 (KDM4C (JMJD2C)): > 2500 nM
- EC50 (MCF7 cells): 250 to 2500 nM
- IC50 (H3K4me3 mark): 250 to 2500 nM

Structure (SMILES): CCN(CC)CCCCNCc1cc(CNC(=O)C(=O)OC(C)(C)C)ccn1 [Compound 28, tert-butyl ({[2-({[4-(diethylamino)-butyl]amino}methyl)pyridin-4-yl]methyl}carbamoyl)-formate]
- IC50 (KDM6A (UTX)): > 2500 nM
- IC50 (KDM5B (PLU-1)): 250 to 2500 nM
- IC50 (KDM4C (JMJD2C)): > 2500 nM
- EC50 (MCF7 cells): 250 to 2500 nM
- IC50 (H3K4me3 mark): 250 to 2500 nM

Structure (SMILES): CCN(CC)CCCCNCc1cc(/C=N/CC(CO)Cc2ccccc2)ccn1 (centres unmarked) [Compound 80, 2-{[{[2-({[4-(diethylamino)-butyl]amino}methyl)pyridin-4-yl]methylidene}-amino]methyl}-3-phenylpropan-1-ol]
- IC50 (KDM6A (UTX)): > 2500 nM
- IC50 (KDM2B (FBXL10)): 250 to 2500 nM
- IC50 (KDM5B (PLU-1)): < 250 nM
- IC50 (KDM4C (JMJD2C)): < 250 nM
- EC50 (MCF7 cells): 250 to 2500 nM

Structure (SMILES): CCN(CC1CCCN1C)C(=O)CNCc1cc(C=O)ccn1 (centres unmarked) [Compound 119, N-ethyl-2-{[(4-formylpyridin-2-yl)methyl]amino}-N-[(1-methylpyrrolidin-2-yl)methyl]acetamide]
- IC50 (KDM5B (PLU-1)): < 250 nM
- IC50 (KDM4C (JMJD2C)): > 2500 nM
- EC50 (MCF7 cells): < 250 nM
- IC50 (H3K4me3 mark): < 250 nM
